{"source": "patent US20070021359A1", "about": "“Addition salts of azithromycin and citric acid and process for preparing them” (priority 2003, published 2007)", "key": {"[1]": {"conditions": "cited from earlier work"}, "[2]": {"conditions": "cited from earlier work", "remark": "listed apart in the source"}, "[3]": {"test": "solubility in water / aqueous solutions", "assay_type": "physicochemical", "conditions": "aqueous solution, ambient temperature", "from_the_text": "The azithromycin citrate of the invention provides aqueous solutions up to 65% (w/w) at ambient temperature, with a pH between 6.8 and 7.5. The new addition salts of azithromycin and citric acid of the invention are particularly useful in the preparation of aqueous or water-alcohol solutions of azitromycin containing up to 65% of the salt, providing a pH between 4 and 8, stable and not suffering from chemical degradation of azithromycin."}}, "data": [{"compound": "CC[C@H]1OC(=O)[C@H](C)[C@@H](O[C@H]2C[C@@](C)(OC)[C@@H](O)[C@H](C)O2)[C@H](C)[C@@H](O[C@@H]2O[C@H](C)C[C@H](N(C)C)[C@H]2O)[C@](C)(O)C[C@@H](C)CN(C)[C@H](C)[C@@H](O)[C@]1(C)O", "note": "[azithromycin, 9-deoxo-9a-aza-9a-methyl-9a-homoerythromycin A]", "values": [{"measurement": "solubility in water", "setting": "[1]", "result": "very insoluble"}, {"measurement": "stability in aqueous acid medium", "setting": "[2]", "result": "not stable"}]}, {"compound": "azithromycin citrate", "values": [{"measurement": "concentration of aqueous solutions provided", "setting": "[3]", "result": "up to 65 % (w/w)"}]}]}
